This note sets out measurements from the OligoGym collection.

HELM strings list units from the 5' end as sugar, base in round brackets, then linkage (d deoxyribose, r ribose, m 2'-O-methyl, p phosphodiester). Strings are as the collection lists them; they lack the last nucleoside at the 3' end of the tested compound. [moe] = 2'-O-(2-methoxyethyl) (MOE); [sp] = phosphorothioate linkage; [m5C] = 5-methylcytosine

The data set deals with GFAP. As to the kind of experiment: mouse, dose not given. To be noted: ASO.
“RNA1{[moe]([m5C])[sp].[moe](T)p.[moe](T)p.[moe](G)p.[moe](G)[sp].d(A)[sp].d([m5C])[sp].d(T)[sp].d([m5C])[sp].d([m5C])[sp].d(T)[sp].d(T)[sp].d(A)[sp].d(A)[sp].d(T)[sp].[moe](G)p.[moe](A)p.[moe]([m5C])[sp].[moe]([m5C])}$$$$ (last 3' nucleoside missing)” had a 3 h FOB score of 0 score 0-7.
“RNA1{[moe](A)[sp].[moe](T)p.[moe](T)p.[moe](T)p.[moe](G)p.d(G)[sp].d([m5C])[sp].d(A)[sp].d(G)[sp].d(T)[sp].d(A)[sp].d(T)[sp].d(T)[sp].d(A)[sp].d([m5C])[sp].[moe]([m5C])p.[moe](T)p.[moe]([m5C])[sp].[moe](T)}$$$$ (last 3' nucleoside missing)” came in with a 3 h FOB score of 2 score 0-7.
Turning to “RNA1{[moe](T)[sp].[moe]([m5C])p.[moe](T)p.[moe](G)p.[moe]([m5C])p.d([m5C])[sp].d(A)[sp].d(T)[sp].d(T)[sp].d(T)[sp].d(A)[sp].d(T)[sp].d([m5C])[sp].d(T)[sp].d(G)[sp].[moe](T)p.[moe](G)p.[moe]([m5C])[sp].[moe](T)}$$$$ (last 3' nucleoside missing)”, the 3 h FOB score is 1 score 0-7.
“RNA1{[moe](G)[sp].[moe]([m5C])p.[moe](T)p.[moe](T)p.d(T)[sp].d(T)[sp].d(G)[sp].d([m5C])[sp].d([m5C])[sp].d([m5C])[sp].d([m5C])[sp].d([m5C])[sp].d(T)[sp].d(G)[sp].[moe](T)p.[moe](A)p.[moe](G)p.[moe](T)[sp].[moe](G)}$$$$ (last 3' nucleoside missing)” gave a 3 h FOB score of 3 score 0-7.
In the case of “RNA1{[moe](A)[sp].[moe]([m5C])p.[moe](T)p.[moe](A)p.d(T)[sp].d([m5C])[sp].d(T)[sp].d(A)[sp].d(G)[sp].d(G)[sp].d(A)[sp].d(T)[sp].d(T)[sp].d(T)[sp].[moe](G)p.[moe](G)p.[moe]([m5C])p.[moe](A)[sp].[moe](G)}$$$$ (last 3' nucleoside missing)”, the 3 h FOB score is 2 score 0-7.
The figure for “RNA1{[moe](G)[sp].[moe](G)p.[moe](G)p.[moe]([m5C])p.[moe](A)[sp].d(T)[sp].d(G)[sp].d(A)[sp].d(G)[sp].d([m5C])[sp].d([m5C])[sp].d(A)[sp].d(T)[sp].d([m5C])[sp].d([m5C])[sp].[moe](T)p.[moe]([m5C])p.[moe](T)[sp].[moe]([m5C])}$$$$ (last 3' nucleoside missing)” is 3 score 0-7; for “RNA1{[moe]([m5C])[sp].[moe](A)p.[moe](G)p.[moe](T)p.d(A)[sp].d(T)[sp].d(T)[sp].d(A)[sp].d([m5C])[sp].d([m5C])[sp].d(T)[sp].d([m5C])[sp].d(T)[sp].d(A)[sp].[moe]([m5C])p.[moe](T)p.[moe](A)p.[moe](G)[sp].[moe](T)}$$$$ (last 3' nucleoside missing)” it is 1 score 0-7.
In turn, “RNA1{[moe]([m5C])[sp].[moe](G)p.[moe](T)p.[moe](G)p.[moe](T)[sp].d([m5C])[sp].d(A)[sp].d(G)[sp].d([m5C])[sp].d([m5C])[sp].d([m5C])[sp].d(T)[sp].d(G)[sp].d(A)[sp].d(G)[sp].[moe]([m5C])p.[moe](A)p.[moe]([m5C])[sp].[moe]([m5C])}$$$$ (last 3' nucleoside missing)” registered a 3 h FOB score of 2 score 0-7.
The figure for “RNA1{[moe](G)[sp].[moe]([m5C])p.[moe](T)p.[moe](T)p.[moe](T)[sp].d(T)[sp].d(G)[sp].d(A)[sp].d(G)[sp].d(A)[sp].d(T)[sp].d(A)[sp].d(T)[sp].d([m5C])[sp].d(T)[sp].[moe](T)p.[moe](G)p.[moe](T)[sp].[moe](G)}$$$$ (last 3' nucleoside missing)” is 2 score 0-7.
The substance “RNA1{[moe](G)[sp].[moe](T)p.[moe](G)p.[moe](T)p.[moe](A)[sp].d(T)[sp].d(T)[sp].d(A)[sp].d(G)[sp].d(G)[sp].d(A)[sp].d(T)[sp].d([m5C])[sp].[moe]([m5C])p.[moe]([m5C])p.[moe](A)[sp].[moe](T)}$$$$ (last 3' nucleoside missing)” registered a 3 h FOB score of 4 score 0-7.
The substance “RNA1{[moe](A)[sp].[moe]([m5C])p.[moe](A)p.[moe](T)p.[moe](T)p.[moe]([m5C])p.d(A)[sp].d([m5C])[sp].d(T)[sp].d(A)[sp].d(A)[sp].d(T)[sp].d(A)[sp].d(T)[sp].d(T)[sp].d(T)[sp].[moe](A)p.[moe](A)[sp].[moe]([m5C])}$$$$ (last 3' nucleoside missing)” returned a 3 h FOB score of 0 score 0-7.
The substance “RNA1{[moe](G)[sp].[moe](T)p.[moe](G)p.[moe]([m5C])p.[moe](T)[sp].d(G)[sp].d([m5C])[sp].d(T)[sp].d(G)[sp].d([m5C])[sp].d([m5C])[sp].d(A)[sp].d(G)[sp].d(A)[sp].d(G)[sp].[moe](T)p.[moe]([m5C])p.[moe]([m5C])[sp].[moe](T)}$$$$ (last 3' nucleoside missing)” came in with a 3 h FOB score of 6 score 0-7.
With “RNA1{[moe](T)[sp].[moe](G)p.[moe](T)p.[moe](G)p.[moe](T)p.d(A)[sp].d(T)[sp].d(T)[sp].d(A)[sp].d(G)[sp].d(G)[sp].d(A)[sp].d(T)[sp].d([m5C])[sp].d([m5C])[sp].[moe]([m5C])p.[moe](A)p.[moe](T)[sp].[moe]([m5C])}$$$$ (last 3' nucleoside missing)”, the 3 h FOB score was 3 score 0-7.
Consider “RNA1{[moe]([m5C])[sp].[moe]([m5C])p.[moe](A)p.[moe](G)p.[moe](T)p.d(G)[sp].d(T)[sp].d([m5C])[sp].d(T)[sp].d(T)[sp].d([m5C])[sp].d(A)[sp].d([m5C])[sp].d(T)[sp].d(T)[sp].[moe](T)p.[moe](G)p.[moe]([m5C])[sp].[moe](T)}$$$$ (last 3' nucleoside missing)”, for which the 3 h FOB score worked out at 0 score 0-7.
In the case of “RNA1{[moe](G)[sp].[moe](T)p.[moe](G)p.[moe](T)p.d(A)[sp].d(T)[sp].d(T)[sp].d(A)[sp].d(G)[sp].d(G)[sp].d(A)[sp].d(T)[sp].d([m5C])[sp].d([m5C])[sp].[moe]([m5C])p.[moe](A)p.[moe](T)p.[moe]([m5C])[sp].[moe](T)}$$$$ (last 3' nucleoside missing)”, the 3 h FOB score came out at 3 score 0-7.
In the case of “RNA1{[moe](G)[sp].[moe](T)p.[moe](G)p.[moe](A)p.[moe](G)[sp].d(T)[sp].d(T)[sp].d(T)[sp].d([m5C])[sp].d(T)[sp].d(T)[sp].d(G)[sp].d(T)[sp].d(T)[sp].d(A)[sp].[moe](G)p.[moe](T)p.[moe](T)[sp].[moe](G)}$$$$ (last 3' nucleoside missing)”, the 3 h FOB score was determined as 7 score 0-7.
As for “RNA1{[moe](T)[sp].[moe](G)p.[moe](T)p.[moe](G)p.[moe](A)[sp].d(T)[sp].d(T)[sp].d(T)[sp].d(T)[sp].d([m5C])[sp].d([m5C])[sp].d([m5C])[sp].d([m5C])[sp].d(G)[sp].d(T)[sp].[moe]([m5C])p.[moe](T)p.[moe](T)[sp].[moe](T)}$$$$ (last 3' nucleoside missing)”, the 3 h FOB score amounted to 5 score 0-7.
“RNA1{[moe](G)[sp].[moe](G)p.[moe]([m5C])p.[moe](A)p.[moe](G)[sp].d(T)[sp].d(A)[sp].d(T)[sp].d(T)[sp].d(A)[sp].d([m5C])[sp].d([m5C])[sp].d(T)[sp].d([m5C])[sp].d(T)[sp].[moe](A)p.[moe]([m5C])p.[moe](T)[sp].[moe](A)}$$$$ (last 3' nucleoside missing)” registered a 3 h FOB score of 3 score 0-7.
Regarding “RNA1{[moe](T)[sp].[moe](T)p.[moe](G)p.[moe](T)p.[moe]([m5C])p.[moe](T)p.d(T)[sp].d(T)[sp].d(A)[sp].d(T)[sp].d(T)[sp].d(T)[sp].d(T)[sp].d(T)[sp].d([m5C])[sp].d([m5C])[sp].[moe](T)p.[moe]([m5C])[sp].[moe](A)}$$$$ (last 3' nucleoside missing)”, the 3 h FOB score stood at 4 score 0-7.
Turning to “RNA1{[moe](A)[sp].[moe]([m5C])p.[moe](G)p.[moe](T)p.d([m5C])[sp].d(A)[sp].d([m5C])[sp].d(A)[sp].d(T)[sp].d(T)[sp].d([m5C])[sp].d(A)[sp].d([m5C])[sp].d(T)[sp].[moe](A)p.[moe](A)p.[moe](T)p.[moe](A)[sp].[moe](T)}$$$$ (last 3' nucleoside missing)”, the 3 h FOB score worked out at 0 score 0-7.
For “RNA1{[moe](G)[sp].[moe](G)p.[moe]([m5C])p.[moe](A)p.d([m5C])[sp].d(A)[sp].d(G)[sp].d(T)[sp].d(T)[sp].d([m5C])[sp].d([m5C])[sp].d([m5C])[sp].d(A)[sp].d(G)[sp].[moe](A)p.[moe](T)p.[moe](A)p.[moe]([m5C])[sp].[moe](T)}$$$$ (last 3' nucleoside missing)”, the 3 h FOB score amounted to 1 score 0-7.
Then “RNA1{[moe](G)[sp].[moe]([m5C])p.[moe](T)p.[moe](T)p.[moe](T)[sp].d(T)[sp].d(G)[sp].d(A)[sp].d(G)[sp].d(A)[sp].d(T)[sp].d(A)[sp].d(T)[sp].[moe]([m5C])p.[moe](T)p.[moe](T)[sp].[moe](G)}$$$$ (last 3' nucleoside missing)”, with 3 score 0-7.
As for “RNA1{[moe](T)[sp].[moe](T)p.[moe](G)p.[moe](G)p.d([m5C])[sp].d(A)[sp].d(G)[sp].d(T)[sp].d(A)[sp].d(T)[sp].d(T)[sp].d(A)[sp].d([m5C])[sp].d([m5C])[sp].[moe](T)p.[moe]([m5C])p.[moe](T)p.[moe](A)[sp].[moe]([m5C])}$$$$ (last 3' nucleoside missing)”, the 3 h FOB score was 1 score 0-7.
Then “RNA1{[moe](G)[sp].[moe](T)p.[moe](G)p.[moe]([m5C])p.[moe](T)[sp].d(T)[sp].d(T)[sp].d(T)[sp].d([m5C])[sp].d(T)[sp].d(G)[sp].d([m5C])[sp].d([m5C])[sp].d(T)[sp].d([m5C])[sp].[moe]([m5C])p.[moe](A)p.[moe](G)[sp].[moe](G)}$$$$ (last 3' nucleoside missing)”, with 2 score 0-7; and “RNA1{[moe](A)[sp].[moe](T)p.[moe](T)p.[moe]([m5C])p.[moe](A)[sp].d([m5C])[sp].d(T)[sp].d(A)[sp].d(A)[sp].d(T)[sp].d(A)[sp].d(T)[sp].d(T)[sp].[moe](T)p.[moe](A)p.[moe](A)[sp].[moe]([m5C])}$$$$ (last 3' nucleoside missing)”, with 0 score 0-7.
